Consider twelve molecules from patent US20230295197A1, “STAT5 and STAT6 Degraders and Uses Thereof” (REGENTS OF THE UNIVERSITY OF MICHICAN, priority 2022, published 2023).

The assay addresses T1, STAT6 (Homo sapiens, UniProt P42226).
T1 construct: endogenous in cells; host or cells: MOLM-16, KU-812, SKNO1, MB231, L1236
T1 sequence (P42226 1-847): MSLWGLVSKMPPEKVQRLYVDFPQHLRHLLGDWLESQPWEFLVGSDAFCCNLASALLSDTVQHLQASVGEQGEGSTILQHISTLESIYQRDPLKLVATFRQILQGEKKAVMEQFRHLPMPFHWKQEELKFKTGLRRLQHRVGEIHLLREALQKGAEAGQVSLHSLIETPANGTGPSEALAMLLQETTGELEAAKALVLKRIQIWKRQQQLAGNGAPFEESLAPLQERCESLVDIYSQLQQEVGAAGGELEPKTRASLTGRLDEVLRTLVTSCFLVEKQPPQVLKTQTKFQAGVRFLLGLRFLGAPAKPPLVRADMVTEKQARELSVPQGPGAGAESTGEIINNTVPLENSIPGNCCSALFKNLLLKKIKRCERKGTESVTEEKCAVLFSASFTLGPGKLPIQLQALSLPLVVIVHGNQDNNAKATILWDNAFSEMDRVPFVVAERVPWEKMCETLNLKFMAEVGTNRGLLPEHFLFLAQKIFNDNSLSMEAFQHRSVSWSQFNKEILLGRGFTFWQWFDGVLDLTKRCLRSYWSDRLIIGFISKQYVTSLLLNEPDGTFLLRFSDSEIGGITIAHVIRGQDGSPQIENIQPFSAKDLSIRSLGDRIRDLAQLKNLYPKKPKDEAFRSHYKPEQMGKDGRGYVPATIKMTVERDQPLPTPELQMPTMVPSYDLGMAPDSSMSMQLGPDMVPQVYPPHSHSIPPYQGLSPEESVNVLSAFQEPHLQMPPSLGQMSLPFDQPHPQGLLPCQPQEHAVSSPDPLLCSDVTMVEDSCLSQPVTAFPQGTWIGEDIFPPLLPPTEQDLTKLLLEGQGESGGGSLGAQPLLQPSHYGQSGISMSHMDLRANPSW
The assay is described as follows: Immunoblotting (Western blot) analysis of STAT6 degradation efficiency of degraders in treated cells. The note with it: MOLM-16 cells, class symbols, read-out: DC50 S6 MOLM-16. The class given is cell-based. An outline of the steps: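 Protein levels of STAT5 and STAT6 were assessed in cells cultured at 37 °C in 10% FBS medium after compound exposure, by quantitative fluorescent Western blotting normalised to equal loading and referenced to GAPDH.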
Consider `CC(C)(C)[C@H](NC(=O)c1cc2cc(C(F)(F)P(=O)(O)O)ccc2s1)C(=O)N1CCN(C(=O)CC(=O)NCCCC#Cc2cccc3c2C(=O)N(C2CCC(=O)NC2=O)C3=O)C[C@H]1C(=O)N1CCC[C@H](c2ccccc2)C1` (stereo partly drawn) [Compound 525, ((2-(((2S)-1-((2S)-4-(3-((5-(2-(2,6-dioxopiperidin-3-yl)-1,3-dioxoisoindolin-4-yl)pent-4-yn-1-yl)amino)-3-oxopropanoyl)-2-((R)-3-phenylpiperidine-1-carbonyl)piperazin-1-yl)-3,3-dimethyl-1-oxobutan-2-yl)carbamoyl)benzo[b]thiophen-5-yl)difluoromethyl)phosphonic acid], for which the DC50 (in general, the midpoint of the concentration-degradation curve) is more than 10 µM. In the case of `CC(C)(C)[C@H](NC(=O)c1cc2cc(C(F)(F)P(=O)(O)O)ccc2s1)C(=O)N1CCN(C(=O)CC(=O)NCCCC#Cc2ccc3c(c2)C(=O)N(C2CCC(=O)NC2=O)C3=O)C[C@H]1C(=O)N1CCC[C@H](c2ccccc2)C1` (stereo partly drawn) [Compound 526, ((2-(((2S)-1-((2S)-4-(3-((5-(2-(2,6-dioxopiperidin-3-yl)-1,3-dioxoisoindolin-5-yl)pent-4-yn-1-yl)amino)-3-oxopropanoyl)-2-((R)-3-phenylpiperidine-1-carbonyl)piperazin-1-yl)-3,3-dimethyl-1-oxobutan-2-yl)carbamoyl)benzo[b]thiophen-5-yl)difluoromethyl)phosphonic acid], the DC50 was more than 10 µM. With `CC(C)(C)[C@H](NC(=O)c1cc2cc(C(F)(F)P(=O)(O)O)ccc2s1)C(=O)N1CCN(C(=O)CC(=O)NCCCCC#Cc2cccc3c2C(=O)N(C2CCC(=O)NC2=O)C3=O)C[C@H]1C(=O)N1CCC[C@H](c2ccccc2)C1` (stereo partly drawn) [Compound 527, ((2-(((2S)-1-((2S)-4-(3-((6-(2-(2,6-dioxopiperidin-3-yl)-1,3-dioxoisoindolin-4-yl)hex-5-yn-1-yl)amino)-3-oxopropanoyl)-2-((R)-3-phenylpiperidine-1-carbonyl)piperazin-1-yl)-3,3-dimethyl-1-oxobutan-2-yl)carbamoyl)benzo[b]thiophen-5-yl)difluoromethyl)phosphonic acid] the figure was more than 10 µM; with `CC(C)(C)[C@H](NC(=O)c1cc2cc(C(F)(F)P(=O)(O)O)ccc2s1)C(=O)N1CCN(C(=O)CC(=O)NCCCCC#Cc2ccc3c(c2)C(=O)N(C2CCC(=O)NC2=O)C3=O)C[C@H]1C(=O)N1CCC[C@H](c2ccccc2)C1` (stereo partly drawn) [Compound 528, ((2-(((2S)-1-((2S)-4-(3-((6-(2-(2,6-dioxopiperidin-3-yl)-1,3-dioxoisoindolin-5-yl)hex-5-yn-1-yl)amino)-3-oxopropanoyl)-2-((R)-3-phenylpiperidine-1-carbonyl)piperazin-1-yl)-3,3-dimethyl-1-oxobutan-2-yl)carbamoyl)benzo[b]thiophen-5-yl)difluoromethyl)phosphonic acid], more than 10 µM; with `CC(C)(C)[C@H](NC(=O)c1cc2cc(C(F)(F)P(=O)(O)O)ccc2s1)C(=O)N1CCN(C(=O)CC(=O)NCCCCCC#Cc2cccc3c2C(=O)N(C2CCC(=O)NC2=O)C3=O)C[C@H]1C(=O)N1CCC[C@H](c2ccccc2)C1` (stereo partly drawn) [Compound 529, ((2-(((2S)-1-((2S)-4-(3-((7-(2-(2,6-dioxopiperidin-3-yl)-1,3-dioxoisoindolin-4-yl)hept-6-yn-1-yl)amino)-3-oxopropanoyl)-2-((R)-3-phenylpiperidine-1-carbonyl)piperazin-1-yl)-3,3-dimethyl-1-oxobutan-2-yl)carbamoyl)benzo[b]thiophen-5-yl)difluoromethyl)phosphonic acid], more than 10 µM. Next, `CC(C)(C)[C@H](NC(=O)c1cc2cc(C(F)(F)P(=O)(O)O)ccc2s1)C(=O)N1CCN(C(=O)CC(=O)NCCCCCC#Cc2ccc3c(c2)C(=O)N(C2CCC(=O)NC2=O)C3=O)C[C@H]1C(=O)N1CCC[C@H](c2ccccc2)C1` (stereo partly drawn) [Compound 530, ((2-(((2S)-1-((2S)-4-(3-((7-(2-(2,6-dioxopiperidin-3-yl)-1,3-dioxoisoindolin-5-yl)hept-6-yn-1-yl)amino)-3-oxopropanoyl)-2-((R)-3-phenylpiperidine-1-carbonyl)piperazin-1-yl)-3,3-dimethyl-1-oxobutan-2-yl)carbamoyl)benzo[b]thiophen-5-yl)difluoromethyl)phosphonic acid]: more than 10 µM. Next, `CC(C)(C)[C@H](NC(=O)c1cc2cc(C(F)(F)P(=O)(O)O)ccc2s1)C(=O)N1CCN(C(=O)CC(=O)NCCCCCCCCC#Cc2cccc3c2C(=O)N(C2CCC(=O)NC2=O)C3=O)C[C@H]1C(=O)N1CCC[C@H](c2ccccc2)C1` (stereo partly drawn) [Compound 531, ((2-(((2S)-1-((2S)-4-(3-((10-(2-(2,6-dioxopiperidin-3-yl)-1,3-dioxoisoindolin-4-yl)dec-9-yn-1-yl)amino)-3-oxopropanoyl)-2-((R)-3-phenylpiperidine-1-carbonyl)piperazin-1-yl)-3,3-dimethyl-1-oxobutan-2-yl)carbamoyl)benzo[b]thiophen-5-yl)difluoromethyl)phosphonic acid]: more than 10 µM; `CC(C)(C)[C@H](NC(=O)c1cc2cc(C(F)(F)P(=O)(O)O)ccc2s1)C(=O)N1CCN(C(=O)CC(=O)NCCCCCCCCC#Cc2ccc3c(c2)C(=O)N(C2CCC(=O)NC2=O)C3=O)C[C@H]1C(=O)N1CCC[C@H](c2ccccc2)C1` (stereo partly drawn) [Compound 532, ((2-(((2S)-1-((2S)-4-(3-((10-(2-(2,6-dioxopiperidin-3-yl)-1,3-dioxoisoindolin-5-yl)dec-9-yn-1-yl)amino)-3-oxopropanoyl)-2-((R)-3-phenylpiperidine-1-carbonyl)piperazin-1-yl)-3,3-dimethyl-1-oxobutan-2-yl)carbamoyl)benzo[b]thiophen-5-yl)difluoromethyl)phosphonic acid]: more than 10 µM. For the molecule `CC(C)(C)[C@H](NC(=O)c1cc2cc(C(F)(F)P(=O)(O)O)ccc2s1)C(=O)N1CCN(C(=O)CC(=O)NCCCCCCCCCC#Cc2cccc3c2C(=O)N(C2CCC(=O)NC2=O)C3=O)C[C@H]1C(=O)N1CCC[C@H](c2ccccc2)C1` (stereo partly drawn) [Compound 533, ((2-(((2S)-1-((2S)-4-(3-((11-(2-(2,6-dioxopiperidin-3-yl)-1,3-dioxoisoindolin-4-yl)undec-10-yn-1-yl)amino)-3-oxopropanoyl)-2-((R)-3-phenylpiperidine-1-carbonyl)piperazin-1-yl)-3,3-dimethyl-1-oxobutan-2-yl)carbamoyl)benzo[b]thiophen-5-yl)difluoromethyl)phosphonic acid], the DC50 was more than 10 µM. Next, `CC(C)(C)[C@H](NC(=O)c1cc2cc(C(F)(F)P(=O)(O)O)ccc2s1)C(=O)N1CCN(C(=O)CC(=O)NCCCCCCCCCC#Cc2ccc3c(c2)C(=O)N(C2CCC(=O)NC2=O)C3=O)C[C@H]1C(=O)N1CCC[C@H](c2ccccc2)C1` (stereo partly drawn) [Compound 534, ((2-(((2S)-1-((2S)-4-(3-((11-(2-(2,6-dioxopiperidin-3-yl)-1,3-dioxoisoindolin-5-yl)undec-10-yn-1-yl)amino)-3-oxopropanoyl)-2-((R)-3-phenylpiperidine-1-carbonyl)piperazin-1-yl)-3,3-dimethyl-1-oxobutan-2-yl)carbamoyl)benzo[b]thiophen-5-yl)difluoromethyl)phosphonic acid]: more than 10 µM; `CC(C)(C)[C@H](NC(=O)c1cc2cc(C(F)(F)P(=O)(O)O)ccc2s1)C(=O)N1Cc2cc(OCC(=O)NCC#Cc3cccc4c3C(=O)N(C3CCC(=O)NC3=O)C4=O)ccc2C[C@H]1C(=O)N1CCO[C@H](c2ccccc2)C1` (stereo partly drawn) [Compound 535, ((2-(((2S)-1-((3S)-7-(2-((3-(2-(2,6-dioxopiperidin-3-yl)-1,3-dioxoisoindolin-4-yl)prop-2-yn-1-yl)amino)-2-oxoethoxy)-3-((R)-2-phenylmorpholine-4-carbonyl)-3,4-dihydroisoquinolin-2(1H)-yl)-3,3-dimethyl-1-oxobutan-2-yl)carbamoyl)benzo[b]thiophen-5-yl)difluoromethyl)phosphonic acid]: 0.1 to 1 µM. On to `CC(C)(C)[C@H](NC(=O)c1cc2cc(C(F)(F)P(=O)(O)O)ccc2s1)C(=O)N1Cc2cc(OCC(=O)NCC#Cc3ccc4c(c3)C(=O)N(C3CCC(=O)NC3=O)C4=O)ccc2C[C@H]1C(=O)N1CCO[C@H](c2ccccc2)C1` (stereo partly drawn) [Compound 536, ((2-(((2S)-1-((3S)-7-(2-((3-(2-(2,6-dioxopiperidin-3-yl)-1,3-dioxoisoindolin-5-yl)prop-2-yn-1-yl)amino)-2-oxoethoxy)-3-((R)-2-phenylmorpholine-4-carbonyl)-3,4-dihydroisoquinolin-2(1H)-yl)-3,3-dimethyl-1-oxobutan-2-yl)carbamoyl)benzo[b]thiophen-5-yl)difluoromethyl)phosphonic acid], for which the DC50 is 1 to 10 µM.
